Assay results as given in patent US20170137410A1, “FUSED CYCLOALKYL-PYRIMIDINE COMPOUNDS AND USES THEREOF” (Medivation Technologies, Inc., priority 2014, published 2017).

Assays:
Type in all cases: biochemical
Trk A = Trk A (Homo sapiens, UniProt P04629); assay: HotSpot kinase assay against Trk A; settings: HotSpot 33P assay, ATP 10 μM-30 μM
Procedure: (§1) Kinase assays were performed using test compounds against a panel of Trk kinases: Trk A; Trk B; and Trk C. Each compound was tested at a concentration of 0.1 μM in single duplicate mode against the three kinases. Compounds were prepared as 10 mM stock solutions in DMSO prior to use in the assay. The control compound, staurosporine, was tested at 10 concentrations with three-fold serial dilution starting at 20 μM. IC50 values and curve fits were obtained using Prism (GraphPad Software). IC50 values were determined for staurosporine for comparison.
(§2) The screening was performed using the “HotSpot” assay platform. The assay measures the conversion of a peptide substrate to ^33P-labelled phosphorylated product. Briefly, specific kinase/substrate pairs along with required cofactors were prepared in reaction buffer. Specifically, the substrate was prepared in reaction buffer (20 mM Hepes, pH 7.5; 10 mM MgCl2; 1 mM EGTA; 0.02% Brij35; 0.02 mg/mL BSA; 0.1 mM Na3VO4; 2 mM DTT; 1% DMSO), followed by delivery of any required cofactor to the resulting substrate solution. The corresponding kinase was delivered into the substrate solution and the reaction mixture was mixed gently. Compound was delivered into the reaction mixture, followed 15-20 min later by addition of a mixture of ATP (Sigma, St. Louis Mo.) and ^33P ATP (specific activity 0.01 μCi/μL final; Perkin Elmer, Waltham, Mass.) to a final concentration of 10 μM-30 μM to initiate the reaction. Reactions were carried out at RT for 120 min, followed by spotting of the reactions onto P81 ion exchange filter paper (Whatman #3698-915; Whatman Inc., Piscataway, N.J.). Unbound phosphate was removed by extensive washing of filters in 0.75% phosphoric acid. […] The percent of enzyme inhibition was calculated based on the percent of remaining kinase activity.

activated IR = target: T1, activated IR (Homo sapiens, UniProt P06213); assay: In vitro IR enzymatic assay (ADP-Glo); settings: ATP 50 μM; for inhibition at 1 µM: compound 1 μM; for inhibition at 3 µM: compound 3 μM; for inhibition at 30 µM: compound 30 μM
T1 construct: purchased Millipore 14-803
T1 sequence (P06213 28-1382): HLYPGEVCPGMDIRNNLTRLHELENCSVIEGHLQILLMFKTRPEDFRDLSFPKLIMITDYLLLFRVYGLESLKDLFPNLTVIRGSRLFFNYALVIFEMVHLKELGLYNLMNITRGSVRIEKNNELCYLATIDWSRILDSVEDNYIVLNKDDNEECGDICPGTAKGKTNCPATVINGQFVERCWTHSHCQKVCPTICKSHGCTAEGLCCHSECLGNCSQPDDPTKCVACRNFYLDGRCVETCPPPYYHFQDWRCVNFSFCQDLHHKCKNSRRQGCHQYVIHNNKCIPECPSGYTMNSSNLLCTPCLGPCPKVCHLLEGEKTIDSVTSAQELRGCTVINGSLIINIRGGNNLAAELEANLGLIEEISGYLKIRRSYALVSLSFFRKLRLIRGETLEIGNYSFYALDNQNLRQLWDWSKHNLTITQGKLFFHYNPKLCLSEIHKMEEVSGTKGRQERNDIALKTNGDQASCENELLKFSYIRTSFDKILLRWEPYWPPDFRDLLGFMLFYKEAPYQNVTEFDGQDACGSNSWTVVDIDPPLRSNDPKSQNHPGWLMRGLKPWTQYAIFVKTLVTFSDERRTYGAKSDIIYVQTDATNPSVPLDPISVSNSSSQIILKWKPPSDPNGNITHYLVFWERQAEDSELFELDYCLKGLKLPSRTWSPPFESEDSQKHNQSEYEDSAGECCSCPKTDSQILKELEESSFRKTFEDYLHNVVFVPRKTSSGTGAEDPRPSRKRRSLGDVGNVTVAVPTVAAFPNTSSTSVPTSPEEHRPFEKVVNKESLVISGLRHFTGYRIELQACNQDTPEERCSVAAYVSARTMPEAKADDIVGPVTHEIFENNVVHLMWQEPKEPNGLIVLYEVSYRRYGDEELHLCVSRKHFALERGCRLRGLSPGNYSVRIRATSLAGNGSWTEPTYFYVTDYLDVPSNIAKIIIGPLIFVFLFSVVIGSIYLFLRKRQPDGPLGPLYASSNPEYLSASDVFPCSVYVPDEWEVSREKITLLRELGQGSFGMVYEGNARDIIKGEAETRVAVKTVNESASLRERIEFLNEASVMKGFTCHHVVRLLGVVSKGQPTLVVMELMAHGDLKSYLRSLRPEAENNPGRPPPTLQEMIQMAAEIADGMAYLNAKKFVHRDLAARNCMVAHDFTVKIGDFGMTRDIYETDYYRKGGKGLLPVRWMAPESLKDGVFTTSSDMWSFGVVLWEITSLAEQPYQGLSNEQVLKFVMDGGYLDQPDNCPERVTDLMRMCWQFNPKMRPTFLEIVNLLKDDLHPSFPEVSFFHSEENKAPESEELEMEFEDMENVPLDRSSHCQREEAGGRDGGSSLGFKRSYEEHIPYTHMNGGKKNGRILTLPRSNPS
Procedure: (§3) Inhibition of IGF-1R and IR kinases by compounds described herein were tested. The IC50 values were measured in vitro using an ADP-Glo kinase assay Kit (Promega). For the IGF-1R assay, active recombinant IGF-1R (Millipore #14-802) was used at 1 ng/reaction, the substrate IGF-1R tide (Millipore #12-527) was used at 125 μM and ATP was used at 100 μM. For the IR assay, active recombinant IR (Millipore #14-803) was used at 1 ng/reaction, the substrate Axl tide (Millipore #12-516) was used at 125 μM and ATP at 50 μM. Kinase reactions in both assays were conducted at 30° C. for 20 min with increasing concentrations of the test compounds.
(§4) The assay results as the percent inhibition of binding are presented in Tables B2 and B3 for IGF-1R and IR respectively.

Trk C = Trk C (Homo sapiens, UniProt Q16288); assay: HotSpot kinase assay against Trk C; settings: HotSpot 33P assay, ATP 10 μM-30 μM
Chain of Trk C (Q16288 32-839): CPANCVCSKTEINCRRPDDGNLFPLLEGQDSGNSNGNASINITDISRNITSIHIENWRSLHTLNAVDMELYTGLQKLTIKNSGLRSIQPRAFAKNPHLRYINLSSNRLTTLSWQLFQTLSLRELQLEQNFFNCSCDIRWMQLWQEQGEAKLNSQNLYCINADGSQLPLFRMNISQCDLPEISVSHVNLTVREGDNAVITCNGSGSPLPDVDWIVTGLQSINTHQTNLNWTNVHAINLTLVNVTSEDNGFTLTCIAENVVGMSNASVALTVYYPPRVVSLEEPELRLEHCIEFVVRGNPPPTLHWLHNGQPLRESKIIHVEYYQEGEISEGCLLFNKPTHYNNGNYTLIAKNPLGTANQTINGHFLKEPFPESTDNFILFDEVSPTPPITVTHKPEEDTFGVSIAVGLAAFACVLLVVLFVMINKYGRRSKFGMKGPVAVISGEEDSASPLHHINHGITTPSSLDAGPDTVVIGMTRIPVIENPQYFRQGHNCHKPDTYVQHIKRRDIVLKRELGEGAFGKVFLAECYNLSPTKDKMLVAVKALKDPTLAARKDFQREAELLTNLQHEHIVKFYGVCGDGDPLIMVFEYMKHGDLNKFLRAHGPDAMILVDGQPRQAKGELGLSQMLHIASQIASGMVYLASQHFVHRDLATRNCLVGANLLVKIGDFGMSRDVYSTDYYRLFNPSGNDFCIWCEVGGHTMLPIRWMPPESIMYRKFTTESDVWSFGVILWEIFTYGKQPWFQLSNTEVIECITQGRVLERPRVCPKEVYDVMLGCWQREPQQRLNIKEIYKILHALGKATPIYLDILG
Procedure: as §1, §2

activated IGF-1R = target: T2, activated IGF-1R (Homo sapiens, UniProt P08069); assay: In vitro IGF-1R enzymatic assay (ADP-Glo); settings: ATP 100 μM; for inhibition at 1 µM: compound 1 μM; for inhibition at 3 µM: compound 3 μM; for inhibition at 10 µM: compound 10 μM; for inhibition at 30 µM: compound 30 μM
T2 construct: purchased Millipore 14-802
T2 sequence (P08069 31-1367): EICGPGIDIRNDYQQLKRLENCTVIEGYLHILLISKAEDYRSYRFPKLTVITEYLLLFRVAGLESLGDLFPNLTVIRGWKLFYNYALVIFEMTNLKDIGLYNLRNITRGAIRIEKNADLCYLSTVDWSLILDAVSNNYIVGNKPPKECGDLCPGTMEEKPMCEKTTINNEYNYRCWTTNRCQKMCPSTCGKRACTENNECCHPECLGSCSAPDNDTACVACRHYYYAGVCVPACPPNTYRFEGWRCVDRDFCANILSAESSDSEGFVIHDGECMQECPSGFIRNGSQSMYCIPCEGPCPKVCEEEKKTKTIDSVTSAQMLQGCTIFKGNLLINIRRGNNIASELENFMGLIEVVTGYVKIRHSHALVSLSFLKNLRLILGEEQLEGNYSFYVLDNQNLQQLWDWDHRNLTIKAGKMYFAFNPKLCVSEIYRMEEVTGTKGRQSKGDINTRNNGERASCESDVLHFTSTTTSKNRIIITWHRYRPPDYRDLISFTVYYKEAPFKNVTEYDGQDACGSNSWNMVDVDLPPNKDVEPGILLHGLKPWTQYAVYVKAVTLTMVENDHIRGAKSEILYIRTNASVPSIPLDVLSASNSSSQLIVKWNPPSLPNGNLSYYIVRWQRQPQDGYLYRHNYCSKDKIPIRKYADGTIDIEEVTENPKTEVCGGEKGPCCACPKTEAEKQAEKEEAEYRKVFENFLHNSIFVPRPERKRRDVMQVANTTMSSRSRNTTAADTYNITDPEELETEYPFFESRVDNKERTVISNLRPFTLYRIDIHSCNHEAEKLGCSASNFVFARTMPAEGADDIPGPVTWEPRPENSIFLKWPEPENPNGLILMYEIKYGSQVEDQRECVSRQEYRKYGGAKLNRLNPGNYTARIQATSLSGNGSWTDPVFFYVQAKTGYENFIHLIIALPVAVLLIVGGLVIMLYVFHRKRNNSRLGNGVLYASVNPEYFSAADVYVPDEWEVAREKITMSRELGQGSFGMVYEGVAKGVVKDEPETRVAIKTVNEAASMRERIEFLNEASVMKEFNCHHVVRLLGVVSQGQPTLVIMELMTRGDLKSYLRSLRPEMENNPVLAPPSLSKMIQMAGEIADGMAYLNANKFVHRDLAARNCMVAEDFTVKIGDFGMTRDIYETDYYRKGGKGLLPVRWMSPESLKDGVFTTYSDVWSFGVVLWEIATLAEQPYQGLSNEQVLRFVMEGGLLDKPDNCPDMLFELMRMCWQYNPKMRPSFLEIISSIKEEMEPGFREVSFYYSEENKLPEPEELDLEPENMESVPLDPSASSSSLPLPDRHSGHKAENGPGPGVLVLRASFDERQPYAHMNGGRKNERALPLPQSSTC
Procedure: as §3, §4

Trk B = Trk B (Homo sapiens, UniProt Q16620); assay: HotSpot kinase assay against Trk B; settings: HotSpot 33P assay, ATP 10 μM-30 μM
Chain of Trk B (Q16620 32-822): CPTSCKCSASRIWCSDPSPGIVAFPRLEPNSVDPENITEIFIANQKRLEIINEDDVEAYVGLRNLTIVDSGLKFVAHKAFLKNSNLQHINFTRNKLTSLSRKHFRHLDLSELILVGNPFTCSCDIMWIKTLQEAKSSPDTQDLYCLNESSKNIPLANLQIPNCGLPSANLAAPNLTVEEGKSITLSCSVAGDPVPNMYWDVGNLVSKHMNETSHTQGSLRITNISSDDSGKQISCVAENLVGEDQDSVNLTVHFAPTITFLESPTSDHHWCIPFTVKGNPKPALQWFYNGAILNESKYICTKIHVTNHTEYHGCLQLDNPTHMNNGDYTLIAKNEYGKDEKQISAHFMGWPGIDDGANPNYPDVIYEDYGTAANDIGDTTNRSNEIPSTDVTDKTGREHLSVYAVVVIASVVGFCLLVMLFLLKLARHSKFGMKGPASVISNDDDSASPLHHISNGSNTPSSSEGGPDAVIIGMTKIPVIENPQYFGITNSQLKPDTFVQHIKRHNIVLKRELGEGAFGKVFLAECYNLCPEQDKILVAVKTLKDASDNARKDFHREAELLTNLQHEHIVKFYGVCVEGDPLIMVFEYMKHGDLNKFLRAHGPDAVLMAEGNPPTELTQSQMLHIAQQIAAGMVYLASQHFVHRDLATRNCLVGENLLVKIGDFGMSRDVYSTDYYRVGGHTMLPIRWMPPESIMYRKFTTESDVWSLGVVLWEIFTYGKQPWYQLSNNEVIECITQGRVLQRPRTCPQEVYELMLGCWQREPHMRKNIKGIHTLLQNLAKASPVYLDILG
Procedure: as §1, §2

Chain of Trk A (P04629 33-796): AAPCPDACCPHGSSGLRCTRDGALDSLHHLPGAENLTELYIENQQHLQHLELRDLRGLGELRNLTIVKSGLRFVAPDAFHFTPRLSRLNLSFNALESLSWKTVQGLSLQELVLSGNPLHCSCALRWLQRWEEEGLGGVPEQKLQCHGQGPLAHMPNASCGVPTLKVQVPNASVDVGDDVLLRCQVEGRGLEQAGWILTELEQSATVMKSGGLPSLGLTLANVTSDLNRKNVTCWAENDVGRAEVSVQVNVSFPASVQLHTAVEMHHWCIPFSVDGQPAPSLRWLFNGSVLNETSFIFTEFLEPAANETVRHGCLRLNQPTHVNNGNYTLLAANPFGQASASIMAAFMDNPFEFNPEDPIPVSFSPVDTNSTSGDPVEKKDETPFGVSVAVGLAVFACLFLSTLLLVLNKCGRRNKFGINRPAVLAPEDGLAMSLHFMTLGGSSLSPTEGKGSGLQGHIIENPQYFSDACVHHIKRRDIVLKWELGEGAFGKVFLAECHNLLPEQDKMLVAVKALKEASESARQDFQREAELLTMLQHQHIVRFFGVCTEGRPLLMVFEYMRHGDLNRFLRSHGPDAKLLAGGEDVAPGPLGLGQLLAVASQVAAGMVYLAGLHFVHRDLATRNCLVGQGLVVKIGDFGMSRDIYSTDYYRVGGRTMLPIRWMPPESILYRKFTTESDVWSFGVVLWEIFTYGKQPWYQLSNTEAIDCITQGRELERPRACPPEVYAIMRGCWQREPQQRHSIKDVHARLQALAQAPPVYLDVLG

CN1CCN(C(=O)[C@H]2CCCN2c2nc3c(c(Nc4cc(C5CCCC5)n[nH]4)n2)CCC3)CC1=O [136a, 4-[(2R)-1-[4-[(3-cyclopentyl-1H-pyrazol-5-yl)amino]-6,7-dihydro-5H-cyclopenta[d]pyrimidin-2-yl]pyrrolidine-2-carbonyl]-1-methyl-piperazin-2-one]
IC50 (Trk A): 237 nM
inhibition at 1 µM (activated IR): 64%
IC50 (Trk C): 83 nM
inhibition at 1 µM (activated IGF-1R): 72%
IC50 (Trk B): 113 nM

CN1CCN(C(=O)[C@@H]2CCCN2c2nc3c(c(Nc4cc(C5CCCC5)n[nH]4)n2)CCC3)CC1=O [136b, 4-[(2S)-1-[4-[(3-cyclopentyl-1H-pyrazol-5-yl)amino]-6,7-dihydro-5H-cyclopenta[d]pyrimidin-2-yl]pyrrolidine-2-carbonyl]-1-methyl-piperazin-2-one]
IC50 (Trk A): 1730 nM
inhibition at 1 µM (activated IR): -2%
inhibition at 3 µM (activated IR): 21%
inhibition at 30 µM (activated IR): 72%
IC50 (Trk C): 42.4 nM
inhibition at 1 µM (activated IGF-1R): 15%
inhibition at 3 µM (activated IGF-1R): 12%
inhibition at 10 µM (activated IGF-1R): 28%
inhibition at 30 µM (activated IGF-1R): 63%
IC50 (Trk B): 106 nM

CC(=O)N1CCN(C(=O)[C@@H]2CCCN2c2nc3c(c(Nc4cc(C5CCCC5)n[nH]4)n2)CCC3)CC1 [137b, 1-[4-[(2S)-1-[4-[(3-cyclopentyl-1H-pyrazol-5-yl)amino]-6,7-dihydro-5H-cyclopenta[d]pyrimidin-2-yl]pyrrolidine-2-carbonyl]piperazin-1-yl]ethanone]
IC50 (Trk A): 1910 nM
inhibition at 1 µM (activated IR): 19%
inhibition at 3 µM (activated IR): 9%
inhibition at 30 µM (activated IR): 60%
IC50 (Trk C): 110 nM
inhibition at 1 µM (activated IGF-1R): 10%
inhibition at 3 µM (activated IGF-1R): -1%
inhibition at 10 µM (activated IGF-1R): 15%
inhibition at 30 µM (activated IGF-1R): 43%
IC50 (Trk B): 265 nM

CC(C)c1cc(Nc2nc(N3CCC[C@@H]3C(=O)N3CCCC3)nc3c2CCC3)n[nH]1 [138a, (R)-(1-(4-((5-isopropyl-1H-pyrazol-3-yl)amino)-6,7-dihydro-5H-cyclopenta[d]pyrimidin-2-yl)pyrrolidin-2-yl)(pyrrolidin-1-yl)methanone]
IC50 (Trk A): 878 nM
inhibition at 1 µM (activated IR): 37%
inhibition at 3 µM (activated IR): 61%
inhibition at 30 µM (activated IR): 96%
IC50 (Trk C): 105 nM
inhibition at 3 µM (activated IGF-1R): 62%
inhibition at 10 µM (activated IGF-1R): 83%
inhibition at 30 µM (activated IGF-1R): 95%
IC50 (Trk B): 246 nM

CC(C)c1cc(Nc2nc(N3CCC[C@H]3C(=O)N3CCCC3)nc3c2CCC3)n[nH]1 [138b, (S)-(1-(4-((5-isopropyl-1H-pyrazol-3-yl)amino)-6,7-dihydro-5H-cyclopenta[d]pyrimidin-2-yl)pyrrolidin-2-yl)(pyrrolidin-1-yl)methanone]
IC50 (Trk A): 141 nM
inhibition at 1 µM (activated IR): 21%
inhibition at 3 µM (activated IR): 46%
inhibition at 30 µM (activated IR): 92%
IC50 (Trk C): 1.4 nM
inhibition at 3 µM (activated IGF-1R): 57%
inhibition at 10 µM (activated IGF-1R): 80%
inhibition at 30 µM (activated IGF-1R): 94%
IC50 (Trk B): 5 nM

CC1(C)CCN(C(=O)[C@H]2CCCN2c2nc3c(c(Nc4cc(C5CCCC5)n[nH]4)n2)CCC3)CC1 [141a, (R)-(1-(4-((5-cyclopentyl-1H-pyrazol-3-yl)amino)-6,7-dihydro-5H-cyclopenta[d]pyrimidin-2-yl)pyrrolidin-2-yl)(4,4-dimethylpiperidin-1-yl)methanone]
IC50 (Trk A): 135 nM
inhibition at 1 µM (activated IR): 17%
inhibition at 3 µM (activated IR): 47%
inhibition at 30 µM (activated IR): 97%
IC50 (Trk C): 146 nM
inhibition at 1 µM (activated IGF-1R): 27%
inhibition at 3 µM (activated IGF-1R): 47%
inhibition at 10 µM (activated IGF-1R): 74%
inhibition at 30 µM (activated IGF-1R): 96%
IC50 (Trk B): 231 nM
